Results reported in ChEMBL document CHEMBL5724696, “Autophagy assay results for EUbOPEN Chemogenomics Library” (2024).
Several values for one entry are separate records, joined by “and”; a condition that tells them apart may be missing. Identical values can stand only once.

Legend:
Type in all cases: functional, Homo sapiens
U2OS [1] = assay: (§1) Here: values are normalized to the negative (DMSO; defined as 0% autophagy induction) and positive (250nM Torin1; mTOR inhibitor; defined as maximal inducer of autophagy = 100%) control compounds and represented as % of autophagy induction. […] The impact of autophagy induction on cells is complex and depends on the affected target. As such, the magnitude of a phenotype may not be equally mirrored in the %-value of autophagy induction and vice versa. The dynamics of the induction may indicate the mode of activation: e.g. activation via phosphorylation or a signaling cascade may occur fast, while activation via transcription factors may take considerably longer. […] Of note, treatment concentrations may be sub-optimal for specific compounds, leading to false negative annotations.; details: Culturing Media DMEM, 1 % Penicillin/Streptomycin, 10% Fetal bovin serum Add-On: No, Screening Media Control DMEM, Screening Media Samples DMEM
TERT-RPE1 = assay: as §1; details: Culturing Media DMEM/F12 (1:1), 1 % Penicillin/Streptomycin, 10% Fetal bovin serum Add-On: No, Screening Media Control DMEM/F12 (1:1), Screening Media Samples DMEM/F12 (1:1)
U2OS [2] = assay: as §1; details: Culturing Media DMEM, 1 % Penicillin/Streptomycin, 10% Fetal bovin serum Add-On: No, Screening Media Control DMEM, Screening Media Samples DMEM; remark: listed apart in the source
[3] = Compound Concentration 0.5 uM, Timepoint 12 hours
[4] = Compound Concentration 0.5 uM, Timepoint 24 hours
[5] = Compound Concentration 0.5 uM, Timepoint 36 hours
[6] = Compound Concentration 0.5 uM, Timepoint 60 hours
[7] = Compound Concentration 2 uM, Timepoint 12 hours
[8] = Compound Concentration 2 uM, Timepoint 24 hours
[9] = Compound Concentration 2 uM, Timepoint 36 hours
[10] = Compound Concentration 2 uM, Timepoint 60 hours
[11] = Compound Concentration 10 uM, Timepoint 12 hours
[12] = Compound Concentration 10 uM, Timepoint 24 hours
[13] = Compound Concentration 10 uM, Timepoint 36 hours
[14] = Compound Concentration 10 uM, Timepoint 60 hours
[15] = Compound Concentration 0.5 uM, Timepoint 36 hours, 36 h, 0.5 µM
[16] = Compound Concentration 0.5 uM, Timepoint 12 hours, 12 h, 0.5 µM
[17] = Compound Concentration 0.5 uM, Timepoint 24 hours, 24 h, 0.5 µM
[18] = Compound Concentration 0.5 uM, Timepoint 60 hours, 60 h, 0.5 µM
[19] = Compound Concentration 2 uM, Timepoint 12 hours, 12 h, 2 µM
[20] = Compound Concentration 2 uM, Timepoint 24 hours, 24 h, 2 µM
[21] = Compound Concentration 2 uM, Timepoint 36 hours, 36 h, 2 µM
[22] = Compound Concentration 2 uM, Timepoint 60 hours, 60 h, 2 µM

Structure (SMILES) | autophagy induction (U2OS [1]; [3]) | autophagy induction (U2OS [1]; [4]) | autophagy induction (U2OS [1]; [5]) | autophagy induction (U2OS [1]; [6]) | autophagy induction (U2OS [1]; [7]) | autophagy induction (U2OS [1]; [8]) | autophagy induction (U2OS [1]; [9]) | autophagy induction (U2OS [1]; [10]) | autophagy induction (U2OS [1]; [11]) | autophagy induction (U2OS [1]; [12]) | autophagy induction (U2OS [1]; [13]) | autophagy induction (U2OS [1]; [14]) | autophagy induction (TERT-RPE1; [15]) | autophagy induction (U2OS [2]; [3]) | autophagy induction (U2OS [2]; [4]) | autophagy induction (U2OS [2]; [5]) | autophagy induction (U2OS [2]; [6]) | autophagy induction (U2OS [2]; [7]) | autophagy induction (U2OS [2]; [8]) | autophagy induction (U2OS [2]; [9]) | also measured
CCC[C@H](Oc1cc(C)c(-n2cc(C(F)(F)F)cn2)c(C)c1)c1ccc(C(=O)NCCC(=O)O)cc1 [PF-06291874] | -11.4233% | -19.405% | -11.4713% | -20.1699% | -1.65% | -7.926% | -7.132% | -11.198% | 3.31% | 3.258% | -0.5015% | -15.9451% | -0.178% and 20.1142% | -5.893% | -2.993% | -60.6887% | -2.982% | -4.845% | -1.051% | -59.3505% | autophagy induction (U2OS [2]; [10]): -1.615%; autophagy induction (U2OS [2]; [11]): -7.606%; autophagy induction (U2OS [2]; [12]): -1.597%; autophagy induction (U2OS [2]; [13]): -60.4241%; autophagy induction (U2OS [2]; [14]): -2.455%
Cl.Clc1ccc(CCCOCCCN2CCCCC2)cc1 [PITOLISANT HYDROCHLORIDE] | 13.8608% | 9.201% | 8.758% | 0.1501% | -8.536% | -1.42% | -3.922% | -5.605% | 1.329% | 3.348% | 1.993% | 3.566% | -3.944% and 2.632% | 15.5533% | 6.616% | -57.7817% | -0.2681% | -2.233% | -2.143% | -60.8013% | autophagy induction (TERT-RPE1; [16]): -3.0454% and 2.896%; autophagy induction (TERT-RPE1; [17]): -1.513% and 3.003%; autophagy induction (TERT-RPE1; [18]): -4.171% and 0.01183%; autophagy induction (TERT-RPE1; [19]): 0.8347% and 2.672%; autophagy induction (TERT-RPE1; [20]): 0.6662% and 3.448%; autophagy induction (TERT-RPE1; [21]): -1.283% and 2.753%; autophagy induction (TERT-RPE1; [22]): -3.185% and 1.301%; autophagy induction (TERT-RPE1; Compound Concentration 10 uM, Timepoint 36 hours, 36 h, 10 µM): -0.5799% and 21.0375%; autophagy induction (U2OS [2]; [10]): -1.476%; autophagy induction (U2OS [2]; [11]): 10.0351%; autophagy induction (U2OS [2]; [12]): 1.34%; autophagy induction (U2OS [2]; [13]): -57.6898%; autophagy induction (U2OS [2]; [14]): -1.026%
c1cc(CN2CCCNCCNCCCNCC2)ccc1CN1CCCNCCNCCCNCC1 [PLERIXAFOR] | 9.361% | 4.086% | 3.942% | -10.4654% | -10.5746% | -17.2139% | -19.8311% | -28.2789% | -19.8514% | -21.1534% | -25.1466% | -33.2742% | -5.185% and 14.9232% | 1.944% | -0.47% | 1403.21% | -0.2952% | -1.895% | -4.5042% | -61.4276% | autophagy induction (TERT-RPE1; [16]): -4.475% and 7.798%; autophagy induction (TERT-RPE1; [17]): -3.816% and 9.011%; autophagy induction (TERT-RPE1; [18]): -8.266% and 14.0932%; autophagy induction (TERT-RPE1; [19]): -1.002% and 11.2768%; autophagy induction (TERT-RPE1; [20]): -1.015% and 15.5767%; autophagy induction (TERT-RPE1; [21]): -0.9806% and 19.0771%; autophagy induction (TERT-RPE1; [22]): -1.796% and 21.8048%; autophagy induction (TERT-RPE1; Compound Concentration 10 uM, Timepoint 12 hours, 12 h, 10 µM): -0.2124% and 10.1362%; autophagy induction (U2OS [2]; [10]): -2.96%; autophagy induction (U2OS [2]; [11]): -9.041%; autophagy induction (U2OS [2]; [12]): -7.066%; autophagy induction (U2OS [2]; [13]): -62.672%; autophagy induction (U2OS [2]; [14]): -3.919%
